From patent US7459478B2, “Substituted dihydropyrano indole-3,4-dione derivatives as inhibitors of plasminogen activator inhibitor-1 (PAI-1)” (Wyeth, priority 2002, dated 2008)
Read-outs that look alike come from different tables or passages of the source.

Assays:
[1] = target: human PAI-1 (Homo sapiens, UniProt P05121); test: Assay for determining IC50 of inhibition of PAI-1 (tPA-coated plate, antibody detection of active PAI-1); conditions: human PAI-1 50 ng/ml, pH 7.5, binding to tPA-coated plate
Sequence of human PAI-1 (P05121 24-402): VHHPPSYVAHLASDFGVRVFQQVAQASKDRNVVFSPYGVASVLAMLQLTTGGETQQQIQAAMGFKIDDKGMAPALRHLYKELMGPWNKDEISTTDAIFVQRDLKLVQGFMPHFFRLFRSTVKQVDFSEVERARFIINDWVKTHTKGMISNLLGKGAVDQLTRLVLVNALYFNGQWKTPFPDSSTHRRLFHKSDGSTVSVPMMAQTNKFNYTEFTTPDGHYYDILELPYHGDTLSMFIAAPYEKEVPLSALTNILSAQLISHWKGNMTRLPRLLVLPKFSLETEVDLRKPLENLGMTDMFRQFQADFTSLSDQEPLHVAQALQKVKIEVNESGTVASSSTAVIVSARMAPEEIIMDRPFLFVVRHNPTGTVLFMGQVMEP
Method: Assay for Determining IC50 of Inhibition of PAI-1
This assay is based upon the non-SDS dissociable interaction between tPA and active PAI-1. Assay plates were initially coated with human tPA (10 μg/ml). Test compounds were dissolved in DMSO at 10 mM, then diluted with physiologic buffer (pH 7.5) to a final concentration of 1-50 μM. Test compounds were incubated with human PAI-1 (50 ng/ml) for 15 minutes at room temperature. The tPA-coated plate was washed with a solution of 0.05% Tween 20 and 0.1% BSA, then the plate was blocked with a solution of 3% BSA. An aliquot of the test compound/PAI-1 solution was then added to the tPA-coated plate, incubated at room temperature for 1 hour, and washed. Active PAI-1 bound to the plate was assessed by adding an aliquot of a 1:1000 dilution of the 33B8 monoclonal antibody against human PAI-1, and incubating the plate at room temperature for 1 hour (Molecular Innovations, Royal Oak, Mich.). The plate was again washed, and a solution of goat anti-mouse IgG-alkaline phosphatase conjugate is added at a 1:50,000 dilution in goat serum. The plate was incubated 30 minutes at room temperature, washed, and a solution of alkaline phosphatase substrate is added. The plate was incubated 45 minutes at room temperature, and color development is determined at OD405 nm. The quantition of active PAI-1 bound to tPA at varying concentrations of the test compound was used to determine the IC50. Results were analyzed using a logarithmic best-fit equation. The assay sensitivity was 5 ng/ml of human PAI-1 as determined from a standard curve ranging from 0-100 ng/ml.

[2] = target: T1, recombinant human plasminogen activator inhibitor-1 (Homo sapiens, UniProt P05121); test: Primary screen for the PAI-1 inhibition (chromogenic residual tPA activity); assay type: biochemical
T1 construct: purchased Molecular Innovations, Royal Oak, Mich
T1 sequence (P05121 24-402): as above
Method: Primary Screen for the PAI-1 Inhibition
Test compounds were dissolved in DMSO at a final concentration of 10 mM, then diluted 100× in physiologic buffer. The inhibitory assay was initiated by the addition of the test compound (1-100 μM final concentration, maximum DMSO concentration of 0.2%) in a pH 6.6 buffer containing 140 nM recombinant human plasminogen activator inhibitor-1 (Molecular Innovations, Royal Oak, Mich.). Following a 1 hour incubation at room temperature, 70 nM of recombinant human tissue plasminogen activator (tPA) was added, and the combination of the test compound, PAI-1 and tPA was incubated for an additional 30 minutes. Following the second incubation, Spectrozyme-tPA (American Diagnostica, Greenwich, Conn.), a chromogenic substrate for tPA, was added and absorbance read at 405 nm at 0 and 60 minutes. Relative PAI-1 inhibition was equal to the residual tPA activity in the presence of the test compound and PAI-1. Control treatments included the complete inhibition of tPA by PAI-1 at the molar ratio employed (2:1), and the absence of any effect of the test compound on tPA alone.

[3] = 25 uM test compound, 140 nM PAI-1, 70 nM tPA, pH 6.6, read-out: % inhibition at 25 uM
[4] = pH 6.6, read-out: % inhibition at 25 uM

| Structure (SMILES) | melting point | IC50 [1] [µM] | inhibition at 25 µM [2, 3] [%] | inhibition at 25 µM [2, 4] [%] |
| --- | --- | --- | --- | --- |
| Cc1ccc(Cn2c3c(c4cc(-c5ccc(OC(F)(F)F)cc5)ccc42)C(=O)C(=O)OC3)cc1 [Example 1, 9-(4-Methylbenzyl)-6-[4-(trifluoromethoxy)phenyl]-1,9-dihydropyrano[3,4-b]indole-3,4-dione] | 243 to 244 °C | 2.3 | – | – |
| O=C1OCc2c(c3cc(-c4ccc(OC(F)(F)F)cc4)ccc3n2Cc2ccccc2)C1=O [Example 2, 9-Benzyl-6-[4-(trifluoromethoxy)phenyl]-1,9-dihydropyrano[3,4-b]indole-3,4-dione] | 239 to 240 °C | – | 34 | – |
| Cc1ccc(Cn2c3c(c4cc(-c5cccc(C)c5)ccc42)C(=O)C(=O)OC3)cc1 [Example 3, 9-(4-Methylbenzyl)-6-(3-methylphenyl)-1,9-dihydropyrano[3,4-b]indole-3,4-dione] | 216 to 217 °C | – | – | 22 |
| Cc1cccc(-c2ccc3c(c2)c2c(n3Cc3ccc(C(C)(C)C)cc3)COC(=O)C2=O)c1 [Example 4, 9-(4-tert-butylbenzyl)-6-(3-methylphenyl)-1,9-dihydropyrano[3,4-b]indole-3,4-dione] | 196 to 197 °C | 29.5 | – | – |
| Cc1ccc(Cn2c3c(c4cc(OCc5ccccc5)ccc42)C(=O)C(=O)OC3)cc1 [Example 5, 6-(Benzyloxy)-9-(4-methylbenzyl)-1,9-dihydropyrano[3,4-b]indole-3,4-dione] | 206 to 207 °C | 26.6 | – | – |
| O=C1OCc2[nH]c3ccc(OCc4ccccc4)cc3c2C1=O [Example 6, 6-(Benzyloxy)-1,9-dihydropyrano[3,4-b]indole-3,4-dione] | > 291 °C (dec.) | 34.8 | – | – |
| CC(C)(C)c1ccc(Cn2c3c(c4cc(OCc5ccccc5)ccc42)C(=O)C(=O)OC3)cc1 [Example 7, 6-(Benzyloxy)-9-(4-tert-butylbenzyl)-1,9-dihydropyrano[3,4-b]indole-3,4-dione] | 233 to 234 °C | – | 6 | – |
| CC(C)(C)c1ccc(Cn2c3c(c4cc(O)ccc42)C(=O)C(=O)OC3)cc1 [Example 8, 9-(4-tert-Butylbenzyl)-6-hydroxy-1,9-dihydropyrano[3,4-b]indole-3,4-dione] | > 105 °C (dec.) | 4.83 | – | – |
| O=C1OCc2c(c3cc(-c4ccc(Cl)cc4)ccc3n2Cc2ccccc2)C1=O [Example 9, 9-Benzyl-6-(4-chlorophenyl)-1,9-dihydropyrano[3,4-b]indole-3,4-dione] | 263 to 264 °C | – | – | 40 |
| O=C([O-])C(=O)c1c(CO)n(Cc2ccccc2)c2ccc(-c3ccc(Cl)cc3)cc12.[K+] [Example 10, [1-Benzyl-5-(4-chlorophenyl)-2-(hydroxymethyl)-1H-indol-3-yl](oxo)acetic acid, potassium salt] | 225 to 226 °C | – | – | 59 |
| Cc1cccc(-c2ccc3c(c2)c2c(n3Cc3ccccc3)COC(=O)C2=O)c1 [Example 11, 9-Benzyl-6-(3-methylphenyl)-1,9-dihydropyrano[3,4-b]indole-3,4-dione] | 225 to 226 °C | – | – | 30 |
| O=C1OCc2c(c3cc(-c4ccc(-c5ccccc5)cc4)ccc3n2Cc2ccccc2)C1=O [Example 12, 9-Benzyl-6-(1,1′-biphenyl-4-yl)-1,9-dihydropyrano[3,4-b]indole-3,4-dione] | 254 to 255 °C | – | 40 | – |
| O=C([O-])C(=O)c1c(CO)n(Cc2ccccc2)c2ccc(-c3ccc(-c4ccccc4)cc3)cc12.[K+] [Example 13, [1-Benzyl-5-(1,1′-biphenyl-4-yl)-2-(hydroxymethyl)-1H-indol-3-yl](oxo)acetic acid, potassium salt] | 266 to 268 °C | – | – | 36 |
